In EP2567959B1, “6-(4-HYDROXY-PHENYL)-3-STYRYL-1H-PYRAZOLO[3,4-B]PYRIDINE-4-CARBOXYLIC ACID AMIDE DERIVATIVES AS KINASE INHIBITORS” (SANOFI, priority 2011, dated 2013):

These compounds were tested against T1, human full-length recombinant PKC βII (Homo sapiens, UniProt P05771) (assay: Determination of PKC βII inhibition (Caliper mobility-shift kinase assay, phosphorylation of fluorescein peptide substrate)). Conditions: final compound concentration 1.14 µM (±0.15 µM); 60 min incubation at 32 °C.
T1 construct: Active human full-length recombinant PKC βII; purchased Invitrogen GmbH, Darmstadt, Germany
Type: biochemical
Description: Determination of PKC βII inhibition
PKC βII inhibition was determined according to the following protocol:
Active human full-length recombinant PKC βII and the peptide substrate, Fluorescein-RFARKGSLRQKNV, were purchased from Invitrogen GmbH, Darmstadt, Germany. Adenosine-5'-triphosphate (ATP), bovine serum albumine (BSA), dimethylsulphoxide (DMSO), 4-(2-hydroxyethyl)piperazine-1-ethanesulfonic acid (Hepes), Triton X-100, 1,2-Dioleoyl-sn-glycerol (DAG), L-α-Phosphatidyl-L-serine (PS), calcium chloride (CaCl2), and Pluronic F-68 were purchased from Sigma-Aldrich, Munich, Germany. Magnesium chloride, 1 M sodium hydroxide solution, 1M hydrochloric acid solution and EDTA were obtained from Merck Biosciences, Darmstadt, Germany.
Test compounds were diluted to three times the test concentration in buffer 1 (30 mM Hepes-NaOH, pH 7.4, 0.01 % Pluronic F-68 and 3 % (v/v) DMSO). The PKC βII enzyme was diluted to a concentration of 30 ng/ml in buffer 2 (30 mM Hepes-NaOH, pH 7.4, 15 mM MgCl2,150 µM CaCl2, 150 µg/ml PS, 60 µg/ml DAG, and 0.045 % (w/v) Triton X-100). The peptide substrate and ATP were diluted to concentrations of 3 µM and 120 µM, respectively, in buffer 2. Two µl of the compound solution were mixed with 2 µl of the diluted enzyme in a 384-well small volume microtiter plate (Greiner, Bio-One, Frickenhausen, Germany), and the kinase reaction was initiated by addition of 2 µl of the solution containing peptide substrate and ATP. After 60 min incubation at 32 °C, the reaction was stopped by addition of 20 µl of a solution containing 130 mM Hepes-NaOH, pH 7.4, 0.0195 % (v/v) Brij-35, 6.5 mM EDTA, 0.13 % chip coating reagent 3 (Caliper Lifescience Inc, Hopkinton, MA) and 6.5 % (v/v) DMSO. Phosphorylation of the substrate peptide was then detected on a Caliper 3000 instrument essentially as described by Pommereau et al (J. Biomol. Screening 2004, 9(5), 409-416). Separation conditions were as follows: Pressure -0.8 psi, upstream voltage - 3000 V, downstream voltage -800 V. Positive controls (buffer 1 instead of compound) and negative controls (buffer 1 instead of compound and buffer 2 instead of kinase solution) were run in parallel on each plate. Fractional turnover (R) was determined as the height of the peak of the phosphorylated peptide product divided by the sum of the unphosphorylated substrate and phosphorylated product peak heights. Percent-inhibition values for the test compounds were determined using the formula % Inhibition = 100*(1-(Rcompound-Rnegative control)/(Rpositive control-Rnegative control). [formula]
In the following table % inhibition values observed with example compounds at a final concentration of 1.14 µM (±0.15 µM) are listed: […]

T1 sequence (P05771 1-673 isoform P05771-2): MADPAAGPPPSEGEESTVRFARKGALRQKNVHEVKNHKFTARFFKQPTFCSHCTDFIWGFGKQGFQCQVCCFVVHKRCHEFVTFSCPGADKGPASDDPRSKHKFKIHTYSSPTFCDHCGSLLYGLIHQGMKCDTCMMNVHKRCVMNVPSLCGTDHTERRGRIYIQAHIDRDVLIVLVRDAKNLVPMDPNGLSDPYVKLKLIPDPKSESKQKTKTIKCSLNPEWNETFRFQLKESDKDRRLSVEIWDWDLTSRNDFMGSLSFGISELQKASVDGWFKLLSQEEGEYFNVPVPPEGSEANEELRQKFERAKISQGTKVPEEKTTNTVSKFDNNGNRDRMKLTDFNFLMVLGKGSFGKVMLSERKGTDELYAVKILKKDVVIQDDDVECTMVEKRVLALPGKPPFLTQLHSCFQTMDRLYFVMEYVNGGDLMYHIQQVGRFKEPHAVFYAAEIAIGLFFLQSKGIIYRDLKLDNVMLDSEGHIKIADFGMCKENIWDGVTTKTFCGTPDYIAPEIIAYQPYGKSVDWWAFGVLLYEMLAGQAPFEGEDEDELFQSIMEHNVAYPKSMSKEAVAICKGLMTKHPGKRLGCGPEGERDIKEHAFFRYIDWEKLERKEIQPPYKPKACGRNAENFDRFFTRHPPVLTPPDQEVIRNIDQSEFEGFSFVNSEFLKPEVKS

In order of falling inhibition at 1.14 µM:
1. CN(C)Cc1cccc(/C=C/c2n[nH]c3nc(-c4ccc(O)cc4)cc(C(=O)N4CCNCC4)c23)c1 [Example 14, [3-[(E)-2-(3-Dimethylaminomethyl-phenyl)-vinyl]-6-(4-hydroxy-phenyl)-1H-pyrazolo[3,4-b]pyridin-4-yl]-piperazin-1-yl-methanone]  100%
2. CS(=O)(=O)c1cccc(/C=C/c2n[nH]c3nc(-c4ccc(O)cc4)cc(C(=O)N4CCNCC4)c23)c1 [Example 22, {6-(4-hydroxy-phenyl)-3-[(E)-2-(3-methanesulfonyl-phenyl)-vinyl]-1H-pyrazolo[3,4-b]-pyridin-4-yl}-piperazin-1-yl-methanone]  100%
3. CN(C)c1cccc(/C=C/c2n[nH]c3nc(-c4ccc(O)cc4)cc(C(=O)N4CCNCC4)c23)c1 [Example 23, [3-[(E)-2-(3-Dimethylamino-phenyl)-vinyl]-6-(4-hydroxy-phenyl)-1H-pyra-zolo[3,4-b]pyri-din-4-yl]-pipe-razin-1-yl-methanone]  99%
4. CS(=O)(=O)Cc1cccc(/C=C/c2n[nH]c3nc(-c4ccc(O)cc4)cc(C(=O)N4CCNCC4)c23)c1 [Example 15, {6-(4-Hydroxy-phenyl)-3-[(E)-2-(3-methanesulfonylmethyl-phenyl)-vinyl]-1H-pyrazolo[3,4-b]pyridin-4-yl}-piperazin-1-yl-methanone]  99%
5. Cc1cc(C)cc(/C=C/c2n[nH]c3nc(-c4ccc(O)cc4)cc(C(=O)N4CCNCC4)c23)c1 [Example 40, [3-[(E)-2-(3,5-Dimethylphenyl)-vinyl]-6-(4-hydroxy-phenyl)-1H-pyrazolo[3,4-b]pyridin-4-yl]-piperazin-1-yl-methanone]  99%
6. C[C@H]1CNCCN1C(=O)c1cc(-c2ccc(O)cc2F)nc2[nH]nc(/C=C/c3ccccc3)c12 [Example 11, [6-(2-Fluoro-4-hydroxy-phenyl)-3-((E)-styryl)-1H-pyrazolo[3,4-b]pyridin-4-yl]-((S)-2-methyl-piperazin-1-yl)-methanone]  99%
7. CS(=O)(=O)c1ccc(/C=C/c2n[nH]c3nc(-c4ccc(O)cc4)cc(C(=O)N4CCNCC4)c23)cc1 [Example 24, {6-(4-hydroxy-phenyl)-3-[(E)-2-(4-methanesulfonyl-phenyl)-vinyl]-1H-pyra-zolo[3,4-b]pyri-din-4-yl}-pipe-razin-1-yl-methanone]  99%
8. N#Cc1cccc(/C=C/c2n[nH]c3nc(-c4ccc(O)cc4)cc(C(=O)N4CCNCC4)c23)c1 [Example 25, 3-{(E)-2-[6-(4-Hydroxy-phenyl)-4-(piperazine-1-carbonyl)-1H-pyrazolo[3,4-b]pyridin-3-yl]-vinyl}-benzonitrile]  99%
9. Cc1cccc(/C=C/c2n[nH]c3nc(-c4ccc(O)cc4)cc(C(=O)N4CCNCC4)c23)c1 [Example 38, [6-(4-Hydroxy-phenyl)-3-((E)-2-m-tolyl-vinyl)-1H-pyrazolo[3,4-b]pyridin-4-yl]-piperazin-1-yl-methanone]  98%
10. Cc1ccc(/C=C/c2n[nH]c3nc(-c4ccc(O)cc4)cc(C(=O)N4CCNCC4)c23)cc1 [Example 21, [6-(4-Hydroxy-phenyl)-3-((E)-2-p-tolyl-vinyl)-1H-pyrazolo[3,4-b]-pyridin-4-yl]-piperazin-1-yl-methanone]  98%
11. O=C(c1cc(-c2ccc(O)cc2)nc2[nH]nc(/C=C/c3cc(Cl)cc(Cl)c3)c12)N1CCNCC1 [Example 70, [3-[(E)-2-(3,5-Dichloro-phenyl)-vinyl]-6-(4-hydroxy-phenyl)-1H-pyrazolo[3,4-b]pyridin-4-yl]-piperazin-1-yl-methanone]  98%
12. O=C(c1cc(-c2ccc(O)cc2)nc2[nH]nc(/C=C/c3cccc(C(F)(F)F)c3)c12)N1CCNCC1 [Example 46, {6-(4-Hydroxy-phenyl)-3-[(E)-2-(3-trifluoromethylphenyl)-vinyl]-1 H-pyrazolo[3,4-b]pyridin-4-yl}-piperazin-1-yl-methanone]  97%
13. O=C(c1cc(-c2ccc(O)cc2)nc2[nH]nc(/C=C/c3cccc(Cl)c3)c12)N1CCNCC1 [Example 48, [3-[(E)-2-(3-Chloro-phenyl)-vinyl]-6-(4-hydroxy-phenyl)-1H-pyrazolo[3,4-b]pyridin-4-yl]-piperazin-1-yl-methanone]  97%
14. O=C(c1cc(-c2ccc(O)cc2)nc2[nH]nc(/C=C/c3ccc(Oc4ccccc4)cc3)c12)N1CCNCC1 [Example 44, {6-(4-hydroxy-phenyl)-3-[(E)-2-(4-phenoxy-phenyl)-vinyl]-1H-pyrazolo[3,4-b]pyridin-4-yl}-piperazin-1-yl-methanone]  97%
15. C[C@@H]1CN(C(=O)c2cc(-c3ccc(O)cc3)nc3[nH]nc(/C=C/c4ccccc4)c23)[C@@H](C)CN1 [Example 8, ((2S,5R)-2,5-Dimethyl-piperazin-1-yl)-[6-(4-hydroxy-phenyl)-3-((E)-styryl)-1H-pyrazolo[3,4-b]pyridin-4-yl]-methanone]  97%
16. Cc1cc(/C=C/c2n[nH]c3nc(-c4ccc(O)cc4)cc(C(=O)N4CCNCC4)c23)ccc1C#N [Example 29, 4-{(E)-2-[6-(4-Hydroxy-phenyl)-4-(piperazine-1-carbonyl)-1H-pyrazolo[3,4-b]pyridin-3-yl]-vinyl}-2-methyl-benzonitrile]  96%
17. CC(C)c1ccc(/C=C/c2n[nH]c3nc(-c4ccc(O)cc4)cc(C(=O)N4CCNCC4)c23)cc1 [Example 51, {6-(4-Hydroxy-phenyl)-3-[(E)-2-(4-isopropyl-phenyl)-vinyl]-1H-pyrazolo[3,4-b]pyridin-4-yl}-piperazin-1-yl-methanone]  94%
18. Cc1ccc(C)c(/C=C/c2n[nH]c3nc(-c4ccc(O)cc4)cc(C(=O)N4CCNCC4)c23)c1 [Example 50, [3-[(E)-2-(2,5-Dimethylphenyl)-vinyl]-6-(4-hydroxy-phenyl)-1H-pyrazolo[3,4-b]pyridin-4-yl]-piperazin-1-yl-methanone]  92%
19. O=C(c1cccnc1)N1CCN(C(=O)c2cc(-c3ccc(O)cc3)nc3[nH]nc(/C=C/c4ccccc4)c23)CC1 [Example 83, [6-(4-Hydroxy-phenyl)-3-((E)-styryl)-1H-pyra-zolo[3,4-b]pyri-din-4-yl]-[4-(pyridine-3-carbonyl)-piperazin-1-yl]-methanone]  90%
20. Cc1ccc(/C=C/c2n[nH]c3nc(-c4ccc(O)cc4)cc(C(=O)N4CCNCC4)c23)c(C)c1 [Example 49, [3-[(E)-2-(2,4-Dimethylphenyl)-vinyl]-6-(4-hydroxy-phenyl)-1H-pyrazolo[3,4-b]pyridin-4-yl]-piperazin-1-yl-methanone]  88%
21. CCCC[C@@H]1CNCCN1C(=O)c1cc(-c2ccc(O)cc2)nc2[nH]nc(/C=C/c3ccccc3)c12 [Example 77, ((R)-2-Butyl-piperazin-1-yl)-[6-(4-hydroxy-phenyl)-3-((E)-styryl)-1H-pyra-zolo[3,4-b]-pyridin-4-yl]-methanone]  79%
22. O=C(c1cc(-c2ccc(O)cc2)nc2[nH]nc(/C=C/c3ccccc3C(F)(F)F)c12)N1CCNCC1 [Example 68, {6-(4-Hydroxy-phenyl)-3-[(E)-2-(2-trifluoromethyl-phenyl)-vinyl]-1H-pyrazolo[3,4-b]pyridin-4-yl}-piperazin-1-yl-methanone]  60%
23. COC(=O)N1CCN(C(=O)c2cc(-c3ccc(O)cc3)nc3[nH]nc(/C=C/c4ccccc4)c23)CC1 [Example 82, 4-[6-(4-Hydroxy-phenyl)-3-((E)-styryl)-1H-pyra-zolo[3,4-b]pyri-dine-4-carbonyl]-piperazine-1-carboxylic acid methyl ester]  56%
24. O=C(c1cc(-c2ccc(O)cc2)nc2[nH]nc(/C=C/c3ccc(Cl)cc3Cl)c12)N1CCNCC1 [Example 39, [3-[(E)-2-(2,4-Dichloro-phenyl)-vinyl]-6-(4-hydroxy-phenyl)-1H-pyrazolo[3,4-b]pyridin-4-yl]-piperazin-1-yl-methanone]  39%
25. CN(C)C(=O)N1CCN(C(=O)c2cc(-c3ccc(O)cc3)nc3[nH]nc(/C=C/c4ccccc4)c23)CC1 [Example 74, 4-[6-(4-Hydroxy-phenyl)-3-((E)-styryl)-1H-pyrazolo[3,4-b]pyridine-4-carbonyl]-piperazine-1-carboxylic acid dimethylamide]  27%
